Measured values taken from patent publication US4699897A, “Biologically active peptides structurally related to regions within growth hormones” (Amgen, priority 1983, dated 1987).
Square brackets hold non-standard residues; d marks the D form. Peptide text beside a SMILES is read from it.

Key:
db/db mice = experiment: Insulin potentiating effects on genetically altered mice at differing ages (plasma glucose); assay type: in vivo, mouse; details: for Plasma Glucose (mg/dL at 60 min.), Age: 8 weeks, Glucose + Insulin + Peptide: db/db mice aged 8 weeks; for Plasma Glucose (mg/dL at 60 min.), Age: 8 weeks, Glucose + Insulin + Peptide / Plasma Glucose (mg/dL at 60 min.), Age: 14 weeks, Glucose + Insulin + Peptide: i.p. glucose + insulin 0.001 mU/10 g + peptide 5 μg/10 g; for Plasma Glucose (mg/dL at 60 min.), Age: 14 weeks, Glucose + Insulin + Peptide: db/db mice aged 14 weeks
Method: A study was conducted to ascertain insulin potentiating effects of Peptide Nos. 6, 9 and 10 on db/db mice aged 8 weeks and 14 weeks.
Test groups of 5 each of db/db mice weighing from 40 to 60 grams each were used. Glucose was administered intraperitoneally at a dosage of […] of a solution containing 135 mg/ml glucose. Insulin was intraperitoneally administered at a dose of 0.001 mU/10 g and Peptide Nos. 6, 9 and 10 were each simultaneously administered at a dose of 5 μg/10 g.

[1] = test system: normal male Sprague-Dawley rats; experiment: Insulin potentiating effects in normal rats (plasma glucose after i.p. glucose load); assay type: in vivo, rat; details: for Plasma Glucose (mg/dL at 60 min.), Glucose + Insulin + Peptide: rats fasted 18 h, i.p. 1.0 ml 0.75M glucose + 15 mU insulin + 25 μg peptide, mean ± standard error
Method: A study was conducted to determine insulin potentiating effects of Peptide Nos. 3, 5, and 6. Also tested was a dipeptide NH2 -Ile-Pro-COOH, a dipeptide outside the scope of the invention. Test groups of 5 normal male Sprague-Dawley rats weighing about 200 grams were fasted for 18 hours and received (intraperitoneally in rapid succession) 1.0 ml of 0.75M glucose, and either 15 mU of insulin with 1% bovine serum ablumin in normal saline (pH 7.4) or a mixture of insulin as above with 25 μg Peptide Nos. 3, 5, 6 and dipeptide. Controls received only bovine serum albumin and saline. Blood was drawn after one hour and plasma glucose levels were determined.

[2] = test system: normal female Rhesus monkeys; experiment: Insulin potentiating effects in primates of Peptide No. 6 compared to deletion peptide (plasma glucose); assay type: in vivo, Rhesus monkey
Method: In a manner analogous to Study C, above, Peptide No. 6 and deletion peptide were studied for insulin potentiating effects in Rhesus monkeys. Blood samples were drawn from normal female monkeys (in […] experimental groups of 3) five minutes before administration of an oral dose of 3.0 ml/kg of 0.5 g/ml glucose and intramuscular administration of either: (1) 0.5 ml/kg phosphate buffered saline (PBS), pH 7.4; (2) deletion peptide 0.1 ml/kg of 1.0 mg/ml solution in PBS; (3) deletion peptide as above combined with 0.5 ml/kg of 20 mU/ml insulin in PBS; or (4) insulin alone as above or (5) Peptide No. 6 0.1 ml/kg of a 0.5 mg/ml solution in PBS combined with insulin as above. Blood samples were then periodically withdrawn over two hours and analyzed for plasma glucose levels.

Sprague-Dawley rats = experiment: Insulin potentiating effects of Peptide No. 6 compared to DP in rats (plasma glucose); assay type: in vivo; details: for Plasma Glucose (mg/dL at 60 min.), Glucose + Insulin + peptide, Rat (normal): i.p. glucose + insulin 0.001 mU/10 g + peptide 5 μg/10 g
Method: (§1) A study was conducted to determine the relative insulin potentiating effects of Peptide No. 6 as compared to those of deletion peptide ("hGH32-46 ").
(§2) Animals in test groups of five each were meployed in these procedures. Sprague-Dawley rats weighed approximately 200 grams; homozygous genetically abnormal mice (db/db and ob/ob) had weights in the range of 40 to 60 grams; heterozygous normal mice all weighed approximately 25 grams. Glucose was administered intraperitoneally at a dosage of […] of a solution containing 135 mg/ml glucose, except for one group of rats which were given an oral dose of 1 ml of 270 mg/ml glucose solution. Insulin was intraperitoneally administered at a dose of 0.001 mU/10 g and both Peptide No. 6 and deletion peptide were administered were simultaneously administered at a dose of 5 μg/10 g.

[3] = test system: ob/ob, ob/+, db/db and db/m mice; experiment: Insulin potentiating effects of Peptide No. 6 compared to DP in mice (plasma glucose); assay type: in vivo, mouse; details: for Plasma Glucose (mg/dL at 60 min.), Glucose + Insulin + peptide, Mouse db/db / Plasma Glucose (mg/dL at 60 min.), Glucose + Insulin + peptide, Mouse db/m (normal) / Plasma Glucose (mg/dL at 60 min.), Glucose + Insulin + peptide, Mouse ob/+ (normal) / Plasma Glucose (mg/dL at 60 min.), Glucose + Insulin + peptide, Mouse ob/ob: i.p. glucose + insulin 0.001 mU/10 g + peptide 5 μg/10 g
Method: as §1, §2

[4] = test system: insulin-stimulated fat cells of older obese rats; details: cited from earlier work
normal rats [5] = details: cited from earlier work
rabbits = details: cited from earlier work
[6] = test system: various model animal test systems; details: cited from earlier work
normal rats [7] = details: cited from earlier work; remark: listed apart in the source
[8] = test system: GT-impaired strain of mice (YS/Wf Nctr); details: cited from earlier work

## CC[C@H](C)[C@H](NC(=O)[C@H](Cc1ccc(O)cc1)NC(=O)[C@@H](C)NC(=O)[C@H](CCC(=O)O)NC(=O)[C@@H](N)CCC(=O)O)C(=O)N1CCC[C@H]1C(=O)N[C@@H](CCCCN)C(=O)O [Peptide No. 9] (H-EE[dA]YIPK-OH)
db/db mice
  Plasma Glucose (mg/dL at 60 min.), Age: 8 weeks, Glucose + Insulin + Peptide: 90.8 ± 16 mg/dL
  Plasma Glucose (mg/dL at 60 min.), Age: 14 weeks, Glucose + Insulin + Peptide: 228 ± 38 mg/dL

## CC[C@H](C)[C@H](NC(=O)[C@H](Cc1ccc(O)cc1)NC(=O)[C@H](C)NC(=O)[C@H](CCC(=O)O)NC(=O)[C@@H](N)CCC(=O)O)C(=O)N1CCC[C@H]1C(=O)N[C@@H](CCCCN)C(=O)O [Peptide No. 6, GLU--GLU--ALA--TYR--ILE--PRO--LYS] (H-EEAYIPK-OH)
[1]; normal rats, Table III
  insulin potentiating effect (in words): exceptionally active insulin potentiator
[1]
  Plasma Glucose (mg/dL at 60 min.), Glucose + Insulin + Peptide: 52 ± 28 mg/dL
[2]; +5 min., oral glucose + i.m. insulin + peptide 0.1 ml/kg of 0.5 mg/ml
  Plasma Glucose (mg/dL), Glucose + Insulin + Peptide No. 6, +5 min.: 62 ± 6 mg/dL
[2]; +15 min., oral glucose + i.m. insulin + peptide 0.1 ml/kg of 0.5 mg/ml
  Plasma Glucose (mg/dL), Glucose + Insulin + Peptide No. 6, +15 min.: 69.5 ± 6 mg/dL
[2]; +30 min., oral glucose + i.m. insulin + peptide 0.1 ml/kg of 0.5 mg/ml
  Plasma Glucose (mg/dL), Glucose + Insulin + Peptide No. 6, +30 min.: 68 ± 9.7 mg/dL
[2]; +45 min., oral glucose + i.m. insulin + peptide 0.1 ml/kg of 0.5 mg/ml
  Plasma Glucose (mg/dL), Glucose + Insulin + Peptide No. 6, +45 min.: 73 ± 3.5 mg/dL
[2]; +60 min., oral glucose + i.m. insulin + peptide 0.1 ml/kg of 0.5 mg/ml
  Plasma Glucose (mg/dL), Glucose + Insulin + Peptide No. 6, +60 min.: 79 ± 6.5 mg/dL
[2]; +120 min., oral glucose + i.m. insulin + peptide 0.1 ml/kg of 0.5 mg/ml
  Plasma Glucose (mg/dL), Glucose + Insulin + Peptide No. 6, +120 min.: 88 ± 12 mg/dL
[2]; Table VI
  insulin potentiating effect relative to deletion peptide (in words): essentially on par with, or superior on a weight basis to, those of deletion peptide
db/db mice; db/db mice aged 8 and 14 weeks, Table IV
  insulin potentiating effect (in words): significant effectiveness
db/db mice
  Plasma Glucose (mg/dL at 60 min.), Age: 8 weeks, Glucose + Insulin + Peptide: 92.3 ± 12 mg/dL
  Plasma Glucose (mg/dL at 60 min.), Age: 14 weeks, Glucose + Insulin + Peptide: 124 ± 34 mg/dL
Sprague-Dawley rats
  Plasma Glucose (mg/dL at 60 min.), Glucose + Insulin + peptide, Rat (normal): 52 ± 6 mg/dL
[3]
  Plasma Glucose (mg/dL at 60 min.), Glucose + Insulin + peptide, Mouse db/db: 109 ± 22 mg/dL
  Plasma Glucose (mg/dL at 60 min.), Glucose + Insulin + peptide, Mouse db/m (normal): 22 ± 10 mg/dL
  Plasma Glucose (mg/dL at 60 min.), Glucose + Insulin + peptide, Mouse ob/+ (normal): 28.5 ± 5 mg/dL
  Plasma Glucose (mg/dL at 60 min.), Glucose + Insulin + peptide, Mouse ob/ob: 118 ± 20 mg/dL
[3]; mice and rats, Table V
  insulin potentiating effect relative to deletion peptide (in words): uniformly more effective in potentiating insulin effects than deletion peptide alone

## synthetic tetradecapeptide having a sequence of amino acids copying residues at positions 31 through 44: literature tetradecapeptide copying hGH residues 31 through 44 (Yudaev et al.) (FEEAYIPKEQKYSF; UniProt P01241 57-70, looked up, fragment)
[4]; Yudaev et al. 1983
  in vitro effect on fat cells: substantially the same in vitro effect on fat cells
Normal rats [5]
  in vivo hypoglycemic effect: absence of any in vivo hypoglycemic effect
rabbits
  in vivo hypoglycemic effect: absence of any in vivo hypoglycemic effect

## CC[C@H](C)[C@H](NC(=O)[C@H](Cc1ccc(O)cc1)NC(=O)[C@H](C)NC(=O)[C@H](CCC(=O)O)NC(=O)[C@@H](N)CCC(=O)O)C(=O)N1CCC[C@H]1C(=O)N[C@@H](CCCCN)C(=O)N[C@@H](CCC(=O)O)C(=O)N[C@@H](CCC(N)=O)C(=O)N[C@@H](CCCCN)C(=O)N[C@@H](Cc1ccc(O)cc1)C(=O)N[C@@H](CO)C(=O)N[C@@H](Cc1ccccc1)C(=O)N[C@@H](CC(C)C)C(=O)N[C@@H](CCC(N)=O)C(=O)O [hGH32-46, NH2 -Glu-Glu-Ala-Tyr-Ile-Pro-Lys-Glu-Gln-Lys-Tyr-Ser-Phe-Leu-Gln-COOH] (H-EEAYIPKEQKYSFLQ-OH)
[2]; +5 min., oral glucose + i.m. insulin + peptide 0.1 ml/kg of 1.0 mg/ml
  Plasma Glucose (mg/dL), Glucose + Insulin + hGH32-46, +5 min.: 64 ± 4 mg/dL
[2]; +15 min., oral glucose + i.m. insulin + peptide 0.1 ml/kg of 1.0 mg/ml
  Plasma Glucose (mg/dL), Glucose + Insulin + hGH32-46, +15 min.: 69 ± 9 mg/dL
[2]; +30 min., oral glucose + i.m. insulin + peptide 0.1 ml/kg of 1.0 mg/ml
  Plasma Glucose (mg/dL), Glucose + Insulin + hGH32-46, +30 min.: 80 ± 5.3 mg/dL
[2]; +45 min., oral glucose + i.m. insulin + peptide 0.1 ml/kg of 1.0 mg/ml
  Plasma Glucose (mg/dL), Glucose + Insulin + hGH32-46, +45 min.: 80 ± 5.9 mg/dL
[2]; +60 min., oral glucose + i.m. insulin + peptide 0.1 ml/kg of 1.0 mg/ml
  Plasma Glucose (mg/dL), Glucose + Insulin + hGH32-46, +60 min.: 96 ± 8 mg/dL
[2]; +120 min., oral glucose + i.m. insulin + peptide 0.1 ml/kg of 1.0 mg/ml
  Plasma Glucose (mg/dL), Glucose + Insulin + hGH32-46, +120 min.: 97 ± 6.6 mg/dL
[4]; insulin-stimulated fat cells of older obese rats, Frigeri et al.
  in vitro glucose utilization of fat cells: in vitro increase in glucose utilization
[6]; contemporaneously administered with exogenous insulin
  potentiation of insulin activity: potentiate insulin activity and augment the hypoglycemic effectiveness of even quite small parenteral doses of insulin
[6]; various model animal test systems
  hypoglycemic effects of the peptide alone: lacked hypoglycemic effects
Sprague-Dawley rats; glucose administered orally (1 ml of 270 mg/ml) + insulin 0.001 mU/10 g + peptide 5 μg/10 g
  Plasma Glucose (mg/dL at 60 min.), Glucose + Insulin + peptide, Rat* (normal): 93.3 ± 14 mg/dL
Sprague-Dawley rats
  Plasma Glucose (mg/dL at 60 min.), Glucose + Insulin + peptide, Rat (normal): 73 ± 10 mg/dL
Normal rats [7]
  late increases in free fatty acids and glycemic effects: did not show either the late increases in free fatty acids nor the glycemic effects which are characteristic of intact hGH
[3]
  Plasma Glucose (mg/dL at 60 min.), Glucose + Insulin + peptide, Mouse db/db: 134 ± 13 mg/dL
  Plasma Glucose (mg/dL at 60 min.), Glucose + Insulin + peptide, Mouse db/m (normal): 49 ± 12 mg/dL
  Plasma Glucose (mg/dL at 60 min.), Glucose + Insulin + peptide, Mouse ob/+ (normal): 56 ± 9 mg/dL
  Plasma Glucose (mg/dL at 60 min.), Glucose + Insulin + peptide, Mouse ob/ob: 138 ± 11 mg/dL
[8]
  glucose tolerance: unspecified degree of improvement in glucose tolerance

## CC[C@H](C)[C@H](N)C(=O)N1CCC[C@H]1C(=O)O [NH2 --Ile--Pro--COOH, NH2 -Ile-Pro-COOH] (H-Ile-Pro-OH)
[1]
  Plasma Glucose (mg/dL at 60 min.), Glucose + Insulin + Peptide: 95 ± 30 mg/dL
